Experimental data reported in the NIST ThermoML archive (doi:10.1021/je700321s).
Numbers after ± are expanded uncertainties.

Test: xn = mol fraction of the nth substance listed
Settings: Liquid, Vibrating tube method

## CC(C)O [propan-2-ol] + O=C=O
323.05 K, 7910 kPa, x2 = 0.6086
  mass density: 781.7 ± 1.5 kg/m3
323.05 K, 8002 kPa, x2 = 0.139
  mass density: 777.6 ± 0.8 kg/m3
323.05 K, 8009 kPa, x2 = 0.6086
  mass density: 782.2 ± 1.6 kg/m3
323.05 K, 8208 kPa, x2 = 0.6086
  mass density: 783.1 ± 0.8 kg/m3
323.05 K, 8404 kPa, x2 = 0.6086
  mass density: 784.1 ± 0.8 kg/m3
323.05 K, 8527 kPa, x2 = 0.139
  mass density: 778.3 ± 0.8 kg/m3
323.05 K, 8528 kPa, x2 = 0.9715
  mass density: 303.9 ± 1.8 kg/m3
323.05 K, 8607 kPa, x2 = 0.6086
  mass density: 785 ± 0.8 kg/m3
323.05 K, 8800 kPa, x2 = 0.6086
  mass density: 785.8 ± 0.8 kg/m3
323.05 K, 9004 kPa, x2 = 0.6086
  mass density: 786.7 ± 0.8 kg/m3
323.05 K, 9031 kPa, x2 = 0.9715
  mass density: 381.9 ± 2.7 kg/m3
323.05 K, 9033 kPa, x2 = 0.139
  mass density: 778.8 ± 0.8 kg/m3
323.05 K, 9107 kPa, x2 = 0.9492
  mass density: 526.2 ± 2.6 kg/m3
323.05 K, 9301 kPa, x2 = 0.6086
  mass density: 788 ± 0.8 kg/m3
323.05 K, 9400 kPa, x2 = 0.9492
  mass density: 575.3 ± 2.3 kg/m3
323.05 K, 9501 kPa, x2 = 0.6086
  mass density: 788.9 ± 0.8 kg/m3
323.05 K, 9519 kPa, x2 = 0.139
  mass density: 779.4 ± 0.8 kg/m3
323.05 K, 9535 kPa, x2 = 0.9715
  mass density: 467.3 ± 2.8 kg/m3
323.05 K, 9702 kPa, x2 = 0.6086
  mass density: 789.8 ± 0.8 kg/m3
323.05 K, 9710 kPa, x2 = 0.9492
  mass density: 607 ± 1.1 kg/m3
323.05 K, 9805 kPa, x2 = 0.6086
  mass density: 790.2 ± 0.8 kg/m3
323.05 K, 10015 kPa, x2 = 0.9492
  mass density: 628.2 ± 1.7 kg/m3
323.05 K, 10046 kPa, x2 = 0.9715
  mass density: 540 ± 2.1 kg/m3
323.05 K, 10301 kPa, x2 = 0.9492
  mass density: 644.3 ± 0.9 kg/m3
323.05 K, 10501 kPa, x2 = 0.9715
  mass density: 577.6 ± 1.6 kg/m3
323.05 K, 10600 kPa, x2 = 0.9492
  mass density: 658.2 ± 1.4 kg/m3
323.05 K, 10904 kPa, x2 = 0.9492
  mass density: 670.3 ± 1.3 kg/m3
323.05 K, 11011 kPa, x2 = 0.9715
  mass density: 612.9 ± 1.5 kg/m3
323.05 K, 11211 kPa, x2 = 0.9492
  mass density: 681.1 ± 1.3 kg/m3
323.05 K, 11508 kPa, x2 = 0.9492
  mass density: 689.9 ± 1.3 kg/m3
323.05 K, 11512 kPa, x2 = 0.9715
  mass density: 638.9 ± 1.3 kg/m3
323.05 K, 11807 kPa, x2 = 0.9492
  mass density: 698.3 ± 1.2 kg/m3
323.05 K, 12028 kPa, x2 = 0.9715
  mass density: 660.4 ± 1.2 kg/m3
323.05 K, 12106 kPa, x2 = 0.9492
  mass density: 705.9 ± 1.1 kg/m3
323.05 K, 12404 kPa, x2 = 0.9492
  mass density: 712.6 ± 1.1 kg/m3
323.05 K, 12516 kPa, x2 = 0.9715
  mass density: 677 ± 1.1 kg/m3
323.05 K, 12703 kPa, x2 = 0.9492
  mass density: 719.2 ± 1.1 kg/m3
323.05 K, 13006 kPa, x2 = 0.9492
  mass density: 725.5 ± 1 kg/m3
323.05 K, 13014 kPa, x2 = 0.9715
  mass density: 691.5 ± 1 kg/m3
323.05 K, 13309 kPa, x2 = 0.9492
  mass density: 731.4 ± 1 kg/m3
323.05 K, 13558 kPa, x2 = 0.9715
  mass density: 705.3 ± 1 kg/m3
323.05 K, 13608 kPa, x2 = 0.9492
  mass density: 736.7 ± 1 kg/m3
323.05 K, 13907 kPa, x2 = 0.9492
  mass density: 742 ± 1 kg/m3
323.05 K, 14003 kPa, x2 = 0.9715
  mass density: 715.4 ± 1 kg/m3
323.05 K, 14210 kPa, x2 = 0.9492
  mass density: 746.8 ± 1 kg/m3
323.05 K, 14504 kPa, x2 = 0.9492
  mass density: 751.1 ± 0.9 kg/m3
323.05 K, 14516 kPa, x2 = 0.9715
  mass density: 725.9 ± 1 kg/m3
323.05 K, 14804 kPa, x2 = 0.9492
  mass density: 755.1 ± 0.9 kg/m3
323.05 K, 15024 kPa, x2 = 0.9715
  mass density: 735.4 ± 0.9 kg/m3
323.05 K, 15506 kPa, x2 = 0.9715
  mass density: 743.6 ± 0.8 kg/m3
323.06 K, 8724 kPa, x2 = 0.7943
  mass density: 745.3 ± 2 kg/m3
323.06 K, 8802 kPa, x2 = 0.7943
  mass density: 746.6 ± 1.8 kg/m3
323.06 K, 8905 kPa, x2 = 0.7943
  mass density: 747.9 ± 1.8 kg/m3
323.06 K, 9005 kPa, x2 = 0.7943
  mass density: 749.2 ± 0.9 kg/m3
323.06 K, 9204 kPa, x2 = 0.7943
  mass density: 751.6 ± 0.9 kg/m3
323.06 K, 9410 kPa, x2 = 0.7943
  mass density: 753.9 ± 0.8 kg/m3
323.06 K, 9606 kPa, x2 = 0.7943
  mass density: 756.2 ± 0.9 kg/m3
323.06 K, 9792 kPa, x2 = 0.7943
  mass density: 758.2 ± 0.9 kg/m3
323.06 K, 10001 kPa, x2 = 0.7943
  mass density: 760.2 ± 0.9 kg/m3
323.06 K, 10310 kPa, x2 = 0.7943
  mass density: 763.1 ± 0.9 kg/m3
323.07 K, 4004 kPa, x2 = 0.2003
  mass density: 775.4 ± 0.8 kg/m3
323.07 K, 4307 kPa, x2 = 0.2003
  mass density: 775.8 ± 0.8 kg/m3
323.07 K, 4497 kPa, x2 = 0.2003
  mass density: 776.1 ± 0.8 kg/m3
323.07 K, 4802 kPa, x2 = 0.2003
  mass density: 776.6 ± 0.8 kg/m3
323.07 K, 5014 kPa, x2 = 0.2003
  mass density: 776.9 ± 0.8 kg/m3
323.07 K, 5510 kPa, x2 = 0.2003
  mass density: 777.5 ± 0.8 kg/m3
